Peptide text beside a SMILES is read from it. * marks the point of attachment. 5TAMRA = CN(C)c1ccc2c(c1)Oc1cc(N(C)C)ccc1C21OC(=O)c2cc(C(=O)*)ccc21
Tests used:
Assay type in all cases: binding
PSD-95-PDZ1-2 = target: T1, PSD-95-PDZ1-2 (Homo sapiens, UniProt P78352); assay: FP saturation and inhibition, TAMRA-Cnskr2 / PSD-95-PDZ1-2; settings: saturation, TAMRA-Cnskr2 5 nM; read-out: Kd probe / PSD-95-PDZ1-2
T1 construct: PDZ1-2 (61-249); made in house; host or cells: E. coli BL21-DE3 pLysS
Text: (§1) First we tested a series of 23 fluorescent-labelled C-terminal peptide ligands (Supplementary Table S1) derived from PDZ-interacting proteins in order to find a probe with good activity towards the PSD-95 PDZ domains and no or little activity against nNOS-PDZ (Supplementary Fig. S1). The Cnskr2 probe fulfilled these selectivity criteria and was used to generate saturation curves with PDZ2 and PDZ1-2 of PSD-95 (Fig. 4a). […] Next, fixed concentrations of TAMRA-Cnskr2, PSD-95-PDZ2/1-2, and nNOS-PDZ were applied, corresponding to the conditions at IC50 of the nNOS-PDZ inhibition curve (Fig. 4b) where sensitivity of the assay is greatest. […] Here, we used the Sapk3-peptide as it has the desired high affinity to α1-Syntrophin-PDZ and low affinity to nNOS-PDZ (Supplementary Fig. S1).
(§2) The minor increases in mP at high concentrations, 260-2900 μM, were due to fluorescence artefacts.
(§3) Incubation time was 10–15 minutes (room temperature), and the assay was performed in a 1 × TBS buffer (150 mM NaCl, 10 mM Tris, pH 7.4) using black flat-bottom 384-well plates (Corning Life Sciences, NY) and a Safire2 plate-reader (Tecan, Männedorf, Switzerland). […] TAMRA- and Cy5-probes were measured at excitation/emission values of 530/585 nm (bandwidth = 20 nm) and 635/670 nm (bandwidth = 15 nm), respectively. […]

nNOS-PDZ = target: T2, nNOS-PDZ (Homo sapiens, UniProt P29475); assay: FP saturation, TAMRA-Cnskr2 / nNOS-PDZ; settings: TAMRA-Cnskr2 5 nM, read-out: Kd probe / nNOS-PDZ
T2 construct: nNOS-PDZ (12–130, human); made in house; host or cells: E. coli
Text: as §1, §2, §3

PSD-95-PDZ2 = PSD-95-PDZ2 (Homo sapiens, UniProt P78352); assay: FP saturation and inhibition, TAMRA-Cnskr2 / PSD-95-PDZ2; parameters: PDZ2 (155-249); made in house; host or cells: E. coli BL21-DE3 pLysS; settings: saturation, TAMRA-Cnskr2 5 nM; read-out: Kd probe / PSD-95-PDZ2
Text: as §1, §2, §3

T1 sequence (P78352 61-249): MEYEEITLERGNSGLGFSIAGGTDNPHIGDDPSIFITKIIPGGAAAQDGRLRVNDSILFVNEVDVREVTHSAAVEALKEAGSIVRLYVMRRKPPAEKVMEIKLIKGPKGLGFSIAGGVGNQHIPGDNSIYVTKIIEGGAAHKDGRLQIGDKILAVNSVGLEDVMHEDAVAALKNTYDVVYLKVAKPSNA
T2 sequence (P29475 12-130): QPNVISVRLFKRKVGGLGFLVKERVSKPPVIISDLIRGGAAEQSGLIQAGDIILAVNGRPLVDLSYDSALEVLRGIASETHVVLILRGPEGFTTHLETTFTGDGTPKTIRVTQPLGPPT
PSD-95-PDZ2, sequence (P78352 155-249): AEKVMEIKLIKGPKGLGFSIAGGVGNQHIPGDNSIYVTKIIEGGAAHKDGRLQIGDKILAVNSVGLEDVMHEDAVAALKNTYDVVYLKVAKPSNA

CC[C@H](C)[C@H](NC(=O)[C@H](Cc1ccc(O)cc1)NC(=O)[C@H](CO)NC(=O)[C@H](Cc1c[nH]cn1)NC(=O)[C@@H](NC(=O)[C@H](Cc1c[nH]cn1)NC(=O)CNC(=O)[C@H](CC(N)=O)NC(=O)[C@H](CC(N)=O)NC(=O)c1ccc2c(c1)C(=O)OC21c2ccc(N(C)C)cc2Oc2cc(N(C)C)ccc21)[C@@H](C)O)C(=O)N[C@@H](CCC(=O)O)C(=O)N[C@H](C(=O)N[C@@H](Cc1c[nH]cn1)C(=O)N[C@H](C(=O)O)C(C)C)[C@@H](C)O [TAMRA-Cnskr2] (5TAMRA-NNGHTHSYIETHV-OH)
Kd (PSD-95-PDZ1-2): 1.1 ± 0.1 µM
Kd (nNOS-PDZ): > 190 µM
Kd (PSD-95-PDZ2): 0.38 ± 0.03 µM
